Results from ChEMBL document CHEMBL4831515 (J Med Chem, 2021).
In brackets after ≈: the same amount, converted by molar mass.

Tests used:
[1] = Half life in human liver microsomes preincubated for 10 mins followed by phosphate buffer addition and incubated for 1 hr and subsequent addition of NADPH regenerating system and measured after 2 hrs by LC-MS/MS analysis
[2] = Stability in human liver microsomes assessed as compound remaining preincubated for 10 mins followed by phosphate buffer addition and incubated for 1 hr and subsequent addition of NADPH regenerating system and measured after 60 mins by LC-MS/MS analysis; type: ADME, Microsome; details: time 190 min, read-out: Stability
in vitro [3] = details: human, liver microsomes
[4] = test system: Human immunodeficiency virus 1; assay: Antiviral activity against wild type HIV1 harboring Y188L mutant infected in human MT4 cells assessed as reduction in virus-induced cytopathogenic effect by MTT assay; details: Human immunodeficiency virus 1, MT4
[5] = test system: Human immunodeficiency virus 1; details: Human immunodeficiency virus 1, MT4
[6] = test system: Human immunodeficiency virus 1; assay: Antiviral activity against HIV1 harboring L100I mutant infected in human MT4 cells assessed as reduction in virus-induced cytopathogenic effect by MTT assay; details: Human immunodeficiency virus 1, MT4
[7] = test system: Human immunodeficiency virus 1; assay: Antiviral activity against HIV1 harboring K103N mutant infected in human MT4 cells assessed as reduction in virus-induced cytopathogenic effect by MTT assay; type: functional, organism-based; details: Human immunodeficiency virus 1, MT4
[8] = target: Human immunodeficiency virus type 1 reverse transcriptase (Human immunodeficiency virus 1, UniProt Q72547); assay: Inhibition of wild type HIV1 reverse transcriptase assessed as reduction in biotin-dUTP incorporation into […] incubated for 1 hrs by ELISA
[9] = Selectivity ratio of CC50 for human MT4 cells to IC50 for HIV1 RES056 infected in MT4 cells
[10] = test system: Human immunodeficiency virus 1; assay: Antiviral activity against HIV1 3B infected in human MT4 cells assessed as reduction in virus-induced cytopathogenic effect by MTT assay; details: Human immunodeficiency virus 1, 3B
[11] = test system: Human immunodeficiency virus 1; assay: Antiviral activity against HIV1 harboring F227L/V106A mutant infected in human MT4 cells assessed as reduction in virus-induced cytopathogenic effect by MTT assay; type: functional, organism-based; details: Human immunodeficiency virus 1, MT4
in vitro [12] = details: human, MT4 cells
Description: Selectivity index, ratio of CC50 for human MT4 cells to EC50 for HIV1 harboring E138K mutant infected in human MT4 cells

[13] = Cytotoxicity against human MT4 cells assessed as reduction in cell viability by MTT assay
[14] = test system: Human immunodeficiency virus 1; assay: Antiviral activity against HIV1 RES056 infected in human MT4 cells assessed as reduction in virus-induced cytopathogenic effect by MTT assay; details: Human immunodeficiency virus 1, RES056, MT4
[15] = test system: Human immunodeficiency virus 2; assay: Antiviral activity against wild type HIV2 ROD infected in human MT4 cells assessed as reduction in virus-induced cytopathogenic effect by MTT assay; details: Human immunodeficiency virus 2, ROD
[16] = test system: Human immunodeficiency virus 1; assay: Antiviral activity against wild type HIV1 harboring Y181C mutant infected in human MT4 cells assessed as reduction in virus-induced cytopathogenic effect by MTT assay; details: Human immunodeficiency virus 1, MT4
[17] = Clearance in Sprague-Dawley rat at 2 mg/kg, iv measured after 5 to 600 mins by LC-MS/MS analysis; type: ADME, organism-based; details: in vivo, time 5-600 min
[18] = Acute toxicity in Kunming mouse assessed as effect on body weight at 1000 mg/kg, ig measured every day for 7 days; type: organism-based; details: in vivo, po, 168 h, time 7 day
[19] = Acute toxicity in Kunming mouse assessed as mortality at 1000 mg/kg, ig measured every day for 7 days; type: organism-based; details: in vivo, po, 168 h, time 7 day
[20] = AUC(0 to infinity) in Sprague-Dawley rat at 2 mg/kg, iv measured after 5 to 600 mins by LC-MS/MS analysis; type: ADME, organism-based; parameters: route intravenous, time 5-600 min, dose 2 mg/kg; details: in vivo
[21] = AUC(0 to last) in Sprague-Dawley rat at 2 mg/kg, iv measured after 5 to 600 mins by LC-MS/MS analysis; type: ADME, organism-based; parameters: route intravenous, dose 2 mg/kg, time upper 600 min, time lower 5 min; details: in vivo
[22] = Half life in Sprague-Dawley rat at 20 mg/kg, po measured after 15 to 720 mins by LC-MS/MS analysis; type: ADME, organism-based; details: in vivo, time 15-720 min
[23] = Acute toxicity in Kunming mouse assessed as induction of poisoning at 1000 mg/kg, ig measured every day for 7 days; type: organism-based; details: in vivo, po, 168 h, time 7 day
[24] = Cmax in Sprague-Dawley rat at 20 mg/kg, po measured after 15 to 720 mins by LC-MS/MS analysis; type: ADME, organism-based; parameters: route oral, dose 20 mg/kg, time 15-720 min; details: in vivo
[25] = Volume of distribution in Sprague-Dawley rat at 2 mg/kg, iv measured after 5 to 600 mins by LC-MS/MS analysis; type: ADME, organism-based; details: in vivo, time 5-600 min
[26] = AUC (0 to infinity) in Sprague-Dawley rat at 20 mg/kg, po measured after 15 to 720 mins by LC-MS/MS analysis; type: ADME, organism-based; parameters: route oral, time lower 15 min, dose 20 mg/kg, time upper 720 min; details: in vivo
[27] = Tmax in Sprague-Dawley rat at 2 mg/kg, iv measured after 5 to 600 mins by LC-MS/MS analysis; type: ADME, organism-based; details: in vivo, time 5-600 min
[28] = Cmax in Sprague-Dawley rat at 2 mg/kg, iv measured after 5 to 600 mins by LC-MS/MS analysis; type: ADME, organism-based; parameters: route intravenous, time lower 5 min, dose 2 mg/kg, time upper 600 min; details: in vivo
[29] = Acute toxicity in ig dosed Kunming mouse measured every day for 7 days; type: organism-based; details: in vivo, po, time 7 day
[30] = MRT (0 to infinity) in Sprague-Dawley rat at 20 mg/kg, po measured after 15 to 720 mins by LC-MS/MS analysis; type: ADME, organism-based; details: in vivo, time 15-720 min
[31] = Acute toxicity in Kunming mouse assessed as effect on growth at 1000 mg/kg, ig measured every day for 7 days; type: organism-based; details: in vivo, po, 168 h, time 7 day
[32] = MRT (0 to infinity) in Sprague-Dawley rat at 2 mg/kg, iv measured after 5 to 600 mins by LC-MS/MS analysis; type: ADME, organism-based; details: in vivo, time 5-600 min
[33] = Tmax in Sprague-Dawley rat at 20 mg/kg, po measured after 15 to 720 mins by LC-MS/MS analysis; type: ADME, organism-based; details: in vivo, time 15-720 min
[34] = Half life in Sprague-Dawley rat at 2 mg/kg, iv measured after 5 to 600 mins by LC-MS/MS analysis; type: ADME, organism-based; details: in vivo, time 5-600 min
[35] = AUC (0 to last) in Sprague-Dawley rat at 20 mg/kg, po measured after 15 to 720 mins by LC-MS/MS analysis; type: ADME, organism-based; parameters: route oral, time lower 15 min, dose 20 mg/kg, time upper 720 min; details: in vivo
[36] = Solubility in phosphate buffer at pH7; details: pH 7

Cc1cc(/C=C/C#N)cc(C)c1Oc1nc(NC2CCN(Cc3ccc(S(N)(=O)=O)cc3)CC2)nc2ccsc12
half-life at 2 h [1]: 1.6 min
remaining at 1 h [2]: 0.2%
microsomal CLint at 2 h (in vitro [3]): 847 µL/min/mg

Cc1cc(/C=C/C#N)cc(C)c1Oc1nc(NC2CCN(Cc3ccc(C(N)=O)cc3)CC2)nc2c1CSCC2
EC50 [4]: 35.2 nM
EC50 [5]: 30 nM
EC50 [6]: 8.65 nM
EC50 [7]: 12.5 nM
IC50 [8]: 179 nM
selectivity ratio [9]: 495
EC50 [10]: 15.5 nM
EC50 [11]: 20 nM
selectivity ratio (in vitro [12]): 615
CC50 [13]: 18500 nM
EC50 [14]: 37.3 nM
EC50 [15]: > 18500 nM
EC50 [16]: 31.1 nM

Cc1cc(/C=C/C#N)cc(C)c1Oc1nc(Nc2ccc(C#N)nc2)nc2c1CSCC2
EC50 [4]: 59.6 nM
EC50 [5]: 12.8 nM
EC50 [6]: 9.08 nM
EC50 [7]: 4.09 nM
IC50 [8]: 32 nM
selectivity ratio [9]: 1340
EC50 [10]: 12.1 nM
EC50 [11]: 148 nM
selectivity ratio (in vitro [12]): 8520
CC50 [13]: 109000 nM
EC50 [14]: 81.6 nM
EC50 [15]: > 109000 nM
EC50 [16]: 13.3 nM

Cc1cc(/C=C/C#N)cc(C)c1Oc1nc(Nc2ccc(C#N)cc2)nc2c1CSCC2
clearance [17]: 23 mL/min/kg
Activity [18]: Non-Toxic
EC50 [4]: 54.5 nM
Activity [19]: Non-Toxic
EC50 [5]: 9.78 nM
half-life at 2 h [1]: 7.4 min
remaining at 1 h [2]: 0.3%
AUC(0-inf) [20]: 1510 ng·h/mL
AUC(0-t) [21]: 1510 ng·h/mL
EC50 [6]: 4.44 nM
half-life [22]: 121 min
Activity [23]: Non-Toxic
Cmax [24]: 16.6 ng/mL
Vd [25]: 0.702 L/kg
EC50 [7]: 4.44 nM
AUC(0-inf) [26]: 24 ng·h/mL
IC50 [8]: 81 nM
Tmax [27]: 4.98 min
Cmax [28]: 8880 ng/mL
microsomal CLint at 2 h (in vitro [3]): 188 µL/min/mg
LD50 at 168 h [29]: > 1000 mg/kg
MRT inf [30]: 174 min
EC50 [10]: 9.67 nM
Activity [31]: Non-Toxic
MRT inf [32]: 30 min
Tmax [33]: 15 min
EC50 [11]: 42.9 nM
half-life [34]: 116 min
CC50 [13]: 284000 nM
EC50 [14]: 47.8 nM
EC50 [15]: > 284000 nM
EC50 [16]: 14.9 nM
AUC(0-t) [35]: 19.5 ng·h/mL

Cc1cc(C#N)cc(C)c1Oc1nc(Nc2ccc(C#N)cc2)nc2c1CSCC2
EC50 [4]: 24.3 nM
EC50 [5]: 9.43 nM
EC50 [6]: 9.31 nM
EC50 [7]: < 3.87 nM
IC50 [8]: 41 nM
selectivity ratio [9]: 1360
EC50 [10]: 5.64 nM
EC50 [11]: 27.1 nM
selectivity ratio (in vitro [12]): 21400
CC50 [13]: 202000 nM
EC50 [14]: 148 nM
EC50 [15]: > 202000 nM
EC50 [16]: 27.6 nM

Cc1cc(/C=C/C#N)cc(C)c1Oc1nc(Nc2ccc(C#N)c(F)c2)nc2c1CSCC2
EC50 [4]: 54.3 nM
EC50 [5]: 41.2 nM
EC50 [6]: 8.41 nM
EC50 [7]: 15.8 nM
IC50 [8]: 8 nM
selectivity ratio [9]: 408
EC50 [10]: 15.8 nM
EC50 [11]: 74.3 nM
selectivity ratio (in vitro [12]): 1320
CC50 [13]: 54400 nM
EC50 [14]: 133 nM
EC50 [15]: > 54400 nM
EC50 [16]: 32.7 nM

Cc1cc(C#N)cc(C)c1Oc1nc(Nc2ccc(C#N)cc2)nc(N)c1Br [ETRAVIRINE]
EC50 [5]: 8.08 nM
EC50 [6]: 6.36 nM
EC50 [7]: 3.14 nM
EC50 [10]: 5.03 nM
solubility [36]: < 1000 ng/mL
EC50 [11]: 14.3 nM
CC50 [13]: > 4590 nM
EC50 [14]: 42.5 nM
EC50 [15]: > 4590 nM

Cc1cc(/C=C/C#N)cc(C)c1Nc1ccnc(Nc2ccc(C#N)cc2)n1 [RILPIVIRINE]
solubility [36]: 2 ng/mL (≈ 5.46 nM)
